Test results published in publication PMC10957983, “The binding and mechanism of a positive allosteric modulator of Kv3 channels” (Nature Communications, 2024).

How the values were obtained:
Kv3.2 = target: T1, Kv3.2 (Homo sapiens, UniProt Q96PR1); assay: TEVC in Xenopus oocytes, concentration dependence of ΔV0.[…]; format: cell-based
T1 construct: gene KCNC2
T1 sequence (Q96PR1 1-638): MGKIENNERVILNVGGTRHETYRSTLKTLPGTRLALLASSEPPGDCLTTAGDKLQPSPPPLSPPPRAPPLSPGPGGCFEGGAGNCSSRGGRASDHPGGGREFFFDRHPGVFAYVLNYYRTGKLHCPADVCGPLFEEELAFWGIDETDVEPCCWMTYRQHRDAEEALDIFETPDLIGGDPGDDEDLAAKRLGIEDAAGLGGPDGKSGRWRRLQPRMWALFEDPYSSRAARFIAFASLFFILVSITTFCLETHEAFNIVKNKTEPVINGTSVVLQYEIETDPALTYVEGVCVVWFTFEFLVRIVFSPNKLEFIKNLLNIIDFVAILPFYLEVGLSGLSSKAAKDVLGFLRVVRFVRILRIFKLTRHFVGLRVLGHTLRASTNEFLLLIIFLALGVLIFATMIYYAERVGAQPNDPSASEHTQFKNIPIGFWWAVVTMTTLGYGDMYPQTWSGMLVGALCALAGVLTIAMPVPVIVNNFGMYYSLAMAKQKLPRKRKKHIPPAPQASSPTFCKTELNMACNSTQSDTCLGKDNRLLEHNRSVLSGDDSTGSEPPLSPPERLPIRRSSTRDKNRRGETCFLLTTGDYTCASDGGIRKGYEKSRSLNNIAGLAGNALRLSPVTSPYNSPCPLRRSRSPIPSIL

Kv3.1 = target: T2, Kv3.1 (Homo sapiens, UniProt P48547); assay: cryo-EM structure of the complex ([…] Å); supported by TEVC of Kv3.[…] and binding-site mutants
T2 construct: gene KCNC1; Full-length human Kv3.1 (isoform A)
T2 sequence (P48547 1-511): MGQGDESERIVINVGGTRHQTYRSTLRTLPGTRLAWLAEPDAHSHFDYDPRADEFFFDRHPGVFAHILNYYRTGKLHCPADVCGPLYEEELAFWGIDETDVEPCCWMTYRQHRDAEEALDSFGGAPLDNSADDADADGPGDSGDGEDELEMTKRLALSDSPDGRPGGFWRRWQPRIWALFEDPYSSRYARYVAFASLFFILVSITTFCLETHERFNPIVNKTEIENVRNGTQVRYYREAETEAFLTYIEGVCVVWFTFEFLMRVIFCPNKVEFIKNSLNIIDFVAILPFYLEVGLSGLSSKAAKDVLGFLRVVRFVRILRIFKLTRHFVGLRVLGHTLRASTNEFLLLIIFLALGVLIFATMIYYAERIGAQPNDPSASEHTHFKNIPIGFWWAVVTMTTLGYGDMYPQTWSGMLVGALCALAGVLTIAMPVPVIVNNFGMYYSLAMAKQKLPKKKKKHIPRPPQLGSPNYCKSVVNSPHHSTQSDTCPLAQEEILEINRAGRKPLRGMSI

SMILES: CC[C@H]1NC(=O)N(c2ccc(Oc3cccc4c3C3(CC3)CO4)nc2)C1=O [AUT5, (5 R)-5-ethyl-3-[6-(spiro[1-benzofuran-3,1’-cyclopropan]-4-yloxy)-3-pyridinyl]-2,4-imidazolidinedione]
- EC50 (Kv3.2): 3.2 µM
- cryo-EM structure of the complex (2.5 Å); supported by TEVC of Kv3.1 and binding (Kv3.1): A non-protein in the electron density map consistent with AUT5 is found in a cavity between S4 and S5 helices
